According to US10602743B2, “Method of inducing drought/salt tolerance using Bacillus megaterium” (Marrone Bio Innovations, Inc., priority 2012, dated 2020):
Counter-ions that a name gives are not always drawn. Like-named read-outs stand apart in the source and are kept apart here.

Tested on: Bacillus megaterium strain H491
Test: Chemical sensitivity, Biolog Phenotypic Microarray
Format: cell-based
[1] = Biolog Phenotypic Microarray, 25° C.

Row | Structure (SMILES) | H491 susceptible to compound [1] | H491 susceptible to compound
1 | CCn1cc(C(=O)O)c(=O)c2cc(F)c(N3CCNCC3)nc21 [Enoxacin] | susceptible | –
2 | O=C(O)CN(CCOCCOCCN(CC(=O)O)CC(=O)O)CC(=O)O [Ethylene Glycol-bis(b-Aminoethyl ether)-N,N,N′,N′-Tetraacetic Acid] | susceptible | –
3 | N#CC(C#N)=NNc1ccc(OC(F)(F)F)cc1 [FCCP] | susceptible | –
4 | O=C1OC(CN2CCOCC2)CN1/N=C/c1ccc([N+](=O)[O-])o1 (stereo not shown) [Furaltadone] | susceptible | –
5 | CC(=O)O[C@H]1C[C@@]2(C)[C@@H](C[C@@H](O)[C@H]3[C@@]4(C)CC[C@@H](O)[C@@H](C)[C@@H]4CC[C@@]32C)/C1=C(\CCC=C(C)C)C(=O)O [Fusidic acid, sodium salt] | susceptible | –
6 | O=C(O)c1cc(O)c(O)c(O)c1 [Gallic acid] | susceptible | –
7 | NCC(=O)NO [Glycine hydroxamate] | susceptible | –
8 | N=C(N)N [Guanidine hydrochloride] | susceptible | –
9 | Oc1c(Cl)cc(Cl)c(Cl)c1Cc1c(O)c(Cl)cc(Cl)c1Cl [Hexachlorophene] | susceptible | –
10 | N.N.N.N.N.N.[Cl-].[Cl-].[Cl-].[Co+3] [Hexamine cobalt (III) chloride] | susceptible | –
11 | NC(=O)NO [Hydroxyurea] | susceptible | –
12 | O=C(O)CI [Iodoacetic acid] | – | susceptible
13 | CO[C@@H]1[C@@H](O[C@@H]2O[C@H](C)[C@@H](O[C@H]3C[C@@](C)(O)[C@@H](OC(=O)CC(C)C)[C@H](C)O3)[C@H](N(C)C)[C@H]2O)[C@@H](CC=O)C[C@@H](C)[C@@H](O)/C=C/C=C/C[C@@H](C)OC(=O)C[C@H]1OC(C)=O [Josamycin] | susceptible | –
14 | CC(C(=O)O)c1cccc(C(=O)c2ccccc2)c1 (stereo not shown) [Ketoprofen] | susceptible | –
15 | N[C@@H](CC(=O)NO)C(=O)O [L-Aspartic-b-hydroxamate] | susceptible | –
16 | CCCCCCCCCCCC[N+](C)(C)CCCS(=O)(=O)[O-] [Lauryl sulfobetaine, N-Dodecyl-N,N-dimethyl-3-ammonio-1-propanesulfonate] | susceptible | –
17 | CCN(CC)CC(=O)Nc1c(C)cccc1C [Lidocaine] | susceptible | –
18 | CCC[C@@H]1C[C@@H](C(=O)N[C@@H]([C@H]2O[C@H](SC)[C@H](O)[C@@H](O)[C@H]2O)[C@@H](C)O)N(C)C1 [Lincomycin] | susceptible | –
19 | [Cl-].[Li+] [Lithium chloride] | susceptible | –
20 | CC1(S(=O)(=O)[O-])CC(=O)c2ccccc2C1=O.[Na+] (stereo not shown) [Menadione, sodium bisulfite] | susceptible | –
21 | C[n+]1ccc(-c2cc[n+](C)cc2)cc1 [Methyl viologen] | susceptible | –
22 | CCCCCCCC[N+](C)(CCCCCCCC)CCCCCCCC.[Cl-] [Methyltrioctylammonium chloride] | susceptible | –
23 | CCOc1ccc2ccccc2c1C(=O)N[C@@H]1C(=O)N2[C@@H]1SC(C)(C)[C@@H]2C(=O)O [Nafcillin] | susceptible | –

Row | Structure (SMILES) | H491 susceptible to compound [1] | H491 susceptible to compound
24 | CCn1cc(C(=O)O)c(=O)c2ccc(C)nc21 [Nalidixic acid] | susceptible | –
25 | CO[C@@H]1[C@@H](OC(N)=O)[C@@H](O)[C@H](Oc2ccc3c(O)c(NC(=O)c4ccc(O)c(CC=C(C)C)c4)c(=O)oc3c2C)OC1(C)C [Novobiocin] | susceptible | –
26 | CO[C@H]1C[C@H](O[C@H]2[C@H](C)[C@@H](O[C@@H]3O[C@H](C)C[C@H](N(C)C)[C@H]3O)[C@@H](C)C[C@@]3(CO3)C(=O)[C@H](C)[C@@H](O)[C@@H](C)[C@@H](C)OC(=O)[C@@H]2C)O[C@@H](C)[C@@H]1O [Oleandomycin, phosphate salt] | susceptible | –
27 | Cc1ncc([N+](=O)[O-])n1CC(O)CCl (stereo not shown) [Ornidazole] | susceptible | –
28 | Cc1ccccc1C(OCCN(C)C)c1ccccc1 (stereo not shown) [Orphenadrine] | susceptible | –
29 | Cc1onc(-c2ccccc2)c1C(=O)N[C@@H]1C(=O)N2[C@@H]1SC(C)(C)[C@@H]2C(=O)O [Oxacillin] | susceptible | –
30 | CC1=C(C(=O)Nc2ccccc2)S(=O)(=O)CCO1 [Oxycarboxin] | susceptible | –
31 | NC[C@@H]1O[C@H](O[C@H]2[C@@H](O)[C@H](O[C@@H]3[C@@H](O)[C@H](N)C[C@H](N)[C@H]3O[C@H]3O[C@H](CO)[C@@H](O)[C@H](O)[C@H]3N)O[C@@H]2CO)[C@H](N)[C@@H](O)[C@@H]1O [Paromomycin] | susceptible | –
32 | O=C1C=C2C(=CCOC2O)O1 (stereo not shown) [Patulin] | susceptible | –
33 | CC1(C)S[C@@H]2[C@H](NC(=O)Cc3ccccc3)C(=O)N2[C@H]1C(=O)O [Penicillin G] | susceptible | –
34 | Oc1c(Cl)c(Cl)c(Cl)c(Cl)c1Cl [Pentachlorophenol] | susceptible | –
35 | CC(Oc1ccccc1)C(=O)N[C@@H]1C(=O)N2[C@@H]1SC(C)(C)[C@@H]2C(=O)O (stereo partly shown) [Phenethicilllin] | susceptible | –
36 | CC1=CC(=O)c2c(O)cccc2C1=O [Plumbagin] | susceptible | –
37 | O=[Te]([O-])[O-].[K+].[K+] [Potassium tellurite] | susceptible | –
38 | OC(CCN1CCCCC1)(c1ccccc1)c1ccccc1 [Pridinol] | susceptible | –
39 | Nc1ccc2cc3ccc(N)cc3nc2c1 [Proflavine] | susceptible | –
40 | CC(CN1c2ccccc2Sc2ccccc21)N(C)C (stereo not shown) [Promethazine] | susceptible | –
41 | COc1ccc(C[C@H](N)C(=O)N[C@H]2[C@@H](O)[C@H](n3cnc4c(N(C)C)ncnc43)O[C@@H]2CO)cc1 [Puromycin] | susceptible | –
42 | CO[C@H]1/C=C/O[C@@]2(C)Oc3c(C)c([O-])c4c(O)c(cc(O)c4c3C2=O)NC(=O)/C(C)=C\C=C\[C@H](C)[C@H](O)[C@@H](C)[C@@H](O)[C@@H](C)[C@H](OC(C)=O)[C@@H]1C.[Na+] [Rifamycin SV] | susceptible | –
43 | O=C([O-])c1ccccc1O.[Na+] [Salicylate, sodium] | – | susceptible
44 | C[n+]1cc2c3c(ccc2c2ccc4cc5c(cc4c21)OCO5)OCO3 [Sanguinarine chloride] | susceptible | –
45 | NNC(N)=O [Semicarbazide hydrochloride] | susceptible | –
46 | CN[C@@H]1[C@@H](O)[C@@H](O[C@@H]2[C@@H](O)[C@H](O[C@H]3OC(CN)=CC[C@H]3N)[C@@H](N)C[C@H]2N)OC[C@]1(C)O [Sisomicin] | susceptible | –

Row | Structure (SMILES) | H491 susceptible to compound [1] | H491 susceptible to compound
47 | O=[As]O [Sodium Arsenite] | susceptible | –
48 | CCCCCCCC(=O)[O-].[Na+] [Sodium Caprylate] | susceptible | –
49 | N#CO [Sodium Cyanate] | susceptible | –
50 | [Na+].[Na+].[O]=[Cr](=[O])([O-])[O][Cr](=[O])(=[O])[O-] [Sodium Dichromate] | susceptible | –
51 | O=NO [Sodium Nitrite] | – | susceptible
52 | [Na+].[Na+].[O]=[W](=[O])([O-])[O-] [Sodium Tungstate] | susceptible | –
53 | O=B[O-].[Na+] [Sodium metaborate] | susceptible | –
54 | [Na+].[Na+].[Na+].[O]=[V]([O-])([O-])[O-] [Sodium orthovanadate] | susceptible | –
55 | [Na+].[O-][I+3]([O-])([O-])[O-] [Sodium periodate] | susceptible | –
56 | Nc1ccc(S(=O)(=O)Nc2ccc(Cl)nn2)cc1 [Sulfachloropyridazine] | susceptible | –
57 | Nc1ccc(S(=O)(=O)Nc2ncccn2)cc1 [Sulfadiazine] | susceptible | –
58 | Cc1cc(NS(=O)(=O)c2ccc(N)cc2)no1 [Sulfamethoxazole] | susceptible | –
59 | Nc1ccc(S(N)(=O)=O)cc1 [Sulfanilamide] | susceptible | –
60 | Nc1ccc(S(=O)(=O)Nc2nccs2)cc1 [Sulfathiazole] | susceptible | –
61 | CCN(CC)C(=S)SSC(=S)N(CC)CC [Tetraethylthiuram disulfide] | susceptible | –
62 | c1ccc(-c2nn(-c3ccccc3)[n+](-c3cccc4ccccc34)n2)cc1 [Tetrazolium violet] | susceptible | –
63 | CC(=O)[O-].[Tl+] [Thallium (I) acetate] | susceptible | –
64 | CS(=O)(=O)c1ccc([C@@H](O)[C@@H](CO)NC(=O)C(Cl)Cl)cc1 [Thiamphenicol] | susceptible | –
65 | CSc1ccc2c(c1)N(CCC1CCCCN1C)c1ccccc1S2 (stereo not shown) [Thioridazine] | susceptible | –
66 | O=C(O)c1ccccc1S [Thiosalicylate] | susceptible | –
67 | CCS(=O)(=O)CCn1c([N+](=O)[O-])cnc1C [Tinidazole] | susceptible | –
